Several values for one entry are separate records, joined by “and”; a condition that tells them apart may be missing. Equal values may be shown once. Inconclusive results and toxic doses are left out.
Test system: CD2F1 mice, L1210 leukemia ip, survival T/C
Assay: NCI In Vivo Anticancer Drug Screen. Data for tumor model L1210 Leukemia (intraperitoneal) in CD2F1 (CDF1) mice
Settings: endpoint: mean survival time, higher = longer survival
Method in brief: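 Mice carrying a transplanted tumor received test compound or vehicle alone. The value is the measurement in the treated group divided by that in the vehicle-treated control group.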

[1] = dose: 0.5 mg/kg/injection, schedule: Q01DX009 (ip), vehicle: saline
[2] = dose: 1.0 mg/kg/injection, schedule: Q01DX009 (ip), vehicle: saline
[3] = dose: 100.0 mg/kg/injection, schedule: Q01DX009 (ip), vehicle: saline with Tween-80
[4] = dose: 200.0 mg/kg/injection, schedule: Q01DX009 (ip), vehicle: saline with Tween-80
[5] = dose: 100.0 mg/kg/injection, schedule: Q04DX003 (ip), vehicle: saline
[6] = dose: 200.0 mg/kg/injection, schedule: Q04DX003 (ip), vehicle: saline
[7] = dose: 100.0 mg/kg/injection, schedule: Q04DX002 (ip), vehicle: saline with Tween-80

CCOC(=O)C(CC(C)C)NC(=O)C(Cc1ccc(N(CCCl)CCCl)cc1)NC(C)=O (configuration not stated)
T/C [1]: 95 % of control | T/C [2]: 92 % of control | T/C (dose: 1.0 mg/kg/injection, schedule: Q04DX003 (ip), vehicle: saline with Tween-80): 100 % of control | T/C (dose: 2.0 mg/kg/injection, schedule: Q01DX001 (ip), vehicle: saline with Tween-80): 102 % of control [middle of 4 runs] | T/C (dose: 2.0 mg/kg/injection, schedule: Q01DX009 (ip), vehicle: Klucel (hydroxypropylcellulose) (HPC)): 92 % of control and 95 % of control | T/C (dose: 2.0 mg/kg/injection, schedule: Q01DX009 (ip), vehicle: saline): 94 % of control | T/C (dose: 2.0 mg/kg/injection, schedule: Q04DX003 (ip), vehicle: saline with Tween-80): 96 % of control and 97 % of control and 105 % of control | T/C (dose: 4.0 mg/kg/injection, schedule: Q01DX001 (ip), vehicle: saline with Tween-80): 102 % of control [middle of 4 runs] | T/C (dose: 4.0 mg/kg/injection, schedule: Q01DX009 (ip), vehicle: Klucel (hydroxypropylcellulose) (HPC)): 94 % of control and 95 % of control | T/C (dose: 4.0 mg/kg/injection, schedule: Q01DX009 (ip), vehicle: saline): 101 % of control | T/C (dose: 4.0 mg/kg/injection, schedule: Q04DX003 (ip), vehicle: saline with Tween-80): 105 % of control [middle of 4 runs] | T/C (dose: 8.0 mg/kg/injection, schedule: Q01DX001 (ip), vehicle: saline with Tween-80): 100 % of control and 98 % of control and 102 % of control | T/C (dose: 8.0 mg/kg/injection, schedule: Q01DX009 (ip), vehicle: Klucel (hydroxypropylcellulose) (HPC)): 94 % of control and 105 % of control | T/C (dose: 8.0 mg/kg/injection, schedule: Q01DX009 (ip), vehicle: saline): 110 % of control and 95 % of control and 103 % of control | T/C (dose: 8.0 mg/kg/injection, schedule: Q04DX003 (ip), vehicle: saline with Tween-80): 105 % of control [middle of 5 runs] | T/C (dose: 16.0 mg/kg/injection, schedule: Q01DX001 (ip), vehicle: saline with Tween-80): 102 % of control [middle of 4 runs] | T/C (dose: 16.0 mg/kg/injection, schedule: Q01DX009 (ip), vehicle: Klucel (hydroxypropylcellulose) (HPC)): 97 % of control and 111 % of control | T/C (dose: 16.0 mg/kg/injection, schedule: Q01DX009 (ip), vehicle: saline): 120 % of control and 100 % of control and 121 % of control | T/C (dose: 16.0 mg/kg/injection, schedule: Q04DX003 (ip), vehicle: saline): 110 % of control | T/C (dose: 32.0 mg/kg/injection, schedule: Q01DX001 (ip), vehicle: saline with Tween-80): 104 % of control [middle of 4 runs] | T/C (dose: 32.0 mg/kg/injection, schedule: Q01DX001 (ip), vehicle: saline): 105 % of control | T/C (dose: 32.0 mg/kg/injection, schedule: Q01DX009 (ip), vehicle: Klucel (hydroxypropylcellulose) (HPC)): 114 % of control | T/C (dose: 32.0 mg/kg/injection, schedule: Q01DX009 (ip), vehicle: saline): 101 % of control | T/C (dose: 32.0 mg/kg/injection, schedule: Q04DX003 (ip), vehicle: saline): 118 % of control | T/C (dose: 64.0 mg/kg/injection, schedule: Q01DX001 (ip), vehicle: saline with Tween-80): 114 % of control and 108 % of control and 98 % of control | T/C (dose: 64.0 mg/kg/injection, schedule: Q01DX001 (ip), vehicle: saline): 211 % of control | T/C (dose: 64.0 mg/kg/injection, schedule: Q01DX009 (ip), vehicle: Klucel (hydroxypropylcellulose) (HPC)): 119 % of control | T/C (dose: 64.0 mg/kg/injection, schedule: Q01DX009 (ip), vehicle: saline): 90 % of control | T/C (dose: 128.0 mg/kg/injection, schedule: Q01DX001 (ip), vehicle: saline with Tween-80): 118 % of control and 104 % of control and 106 % of control | T/C (dose: 128.0 mg/kg/injection, schedule: Q01DX009 (ip), vehicle: saline): 95 % of control and 105 % of control | T/C (dose: 128.0 mg/kg/injection, schedule: Q04DX003 (ip), vehicle: saline with Tween-80): 120 % of control and 92 % of control | T/C (dose: 128.0 mg/kg/injection, schedule: Q04DX003 (ip), vehicle: saline): 170 % of control | T/C (dose: 256.0 mg/kg/injection, schedule: Q01DX001 (ip), vehicle: saline): 152 % of control | T/C (dose: 256.0 mg/kg/injection, schedule: Q01DX009 (ip), vehicle: saline): 103 % of control | T/C (dose: 256.0 mg/kg/injection, schedule: Q04DX003 (ip), vehicle: saline with Tween-80): 94 % of control and 107 % of control | T/C (dose: 256.0 mg/kg/injection, schedule: Q04DX003 (ip), vehicle: saline): 120 % of control | T/C (dose: 512.0 mg/kg/injection, schedule: Q01DX009 (ip), vehicle: saline): 117 % of control

O=c1[nH]cnc2c1ncn2C1OC(CO)C(O)C1O.[Ag+] (configuration not stated)
T/C (dose: 12.5 mg/kg/injection, schedule: Q01DX005 (ip), vehicle: other): 92 % of control | T/C (dose: 25.0 mg/kg/injection, schedule: Q01DX005 (ip), vehicle: other): 98 % of control | T/C (dose: 50.0 mg/kg/injection, schedule: Q01DX005 (ip), vehicle: other): 87 % of control

CN(CCO)C1=C(N2CC2)C(=O)C(N(C)CCO)=C(N2CC2)C1=O
T/C [1]: 115 % of control and 117 % of control | T/C [2]: 155 % of control | T/C (dose: 1.5 mg/kg/injection, schedule: Q01DX009 (ip), vehicle: saline): 201 % of control and 211 % of control

CC1C(=O)C(=O)C(CCc2ccccc2)C1=O (configuration not stated)
T/C [3]: 97 % of control | T/C [4]: 102 % of control | T/C (dose: 400.0 mg/kg/injection, schedule: Q01DX009 (ip), vehicle: saline with Tween-80): 109 % of control

CNC(=O)OC
T/C [5]: 102 % of control | T/C [6]: 110 % of control | T/C (dose: 400.0 mg/kg/injection, schedule: Q04DX003 (ip), vehicle: saline): 108 % of control

NC(=O)CC(NC(c1ccccc1)(c1ccccc1)c1ccccc1)C(=O)ON1C(=O)CCC1=O (configuration not stated)
T/C (dose: 100.0 mg/kg/injection, schedule: Q01DX001 (ip), vehicle: saline sonified): 96 % of control | T/C (dose: 200.0 mg/kg/injection, schedule: Q01DX001 (ip), vehicle: saline sonified): 98 % of control | T/C (dose: 400.0 mg/kg/injection, schedule: Q01DX001 (ip), vehicle: saline sonified): 105 % of control

N#CC1C2CCC(O2)C1C(=O)Oc1ccccc1 (configuration not stated)
T/C (dose: 25.0 mg/kg/injection, schedule: Q04DX002 (ip), vehicle: saline with Tween-80): 103 % of control | T/C (dose: 50.0 mg/kg/injection, schedule: Q04DX002 (ip), vehicle: saline with Tween-80): 95 % of control | T/C [7]: 97 % of control and 110 % of control

CCOC(OCC)c1cc(=O)[nH]c(NC(C)=O)n1
T/C (dose: 100.0 mg/kg/injection, schedule: Q01DX001 (ip), vehicle: saline): 95 % of control | T/C (dose: 200.0 mg/kg/injection, schedule: Q01DX001 (ip), vehicle: saline): 103 % of control | T/C (dose: 400.0 mg/kg/injection, schedule: Q01DX001 (ip), vehicle: saline): 95 % of control

OC1CCc2c(Cl)sc(Cl)c21 (configuration not stated)
T/C (dose: 25.0 mg/kg/injection, schedule: Q01DX001 (ip), vehicle: saline with Tween-80): 92 % of control | T/C (dose: 50.0 mg/kg/injection, schedule: Q01DX001 (ip), vehicle: saline with Tween-80): 98 % of control | T/C (dose: 100.0 mg/kg/injection, schedule: Q01DX001 (ip), vehicle: saline with Tween-80): 98 % of control

CC1CN(C2(c3ccccc3)CCCCC2)CCC12OCCO2 (configuration not stated)
T/C [7]: 93 % of control | T/C (dose: 200.0 mg/kg/injection, schedule: Q04DX002 (ip), vehicle: saline with Tween-80): 97 % of control

c1ccc2c(c1)CN(C1CCCCC1)CO2
T/C (dose: 50.0 mg/kg/injection, schedule: Q01DX009 (ip), vehicle: saline with Tween-80): 98 % of control | T/C [3]: 97 % of control | T/C [4]: 97 % of control

COc1ccc(/C=N/O)cc1
T/C (dose: 75.0 mg/kg/injection, schedule: Q01DX001 (ip), vehicle: saline): 102 % of control | T/C (dose: 150.0 mg/kg/injection, schedule: Q01DX001 (ip), vehicle: saline): 100 % of control | T/C (dose: 300.0 mg/kg/injection, schedule: Q01DX001 (ip), vehicle: saline): 101 % of control

CC(=O)Nc1ccc(S(=O)(=O)N=C(N)N)cc1
T/C (dose: 75.0 mg/kg/injection, schedule: Q04DX002 (ip), vehicle: saline): 114 % of control | T/C (dose: 150.0 mg/kg/injection, schedule: Q04DX002 (ip), vehicle: saline): 100 % of control | T/C (dose: 300.0 mg/kg/injection, schedule: Q04DX002 (ip), vehicle: saline): 91 % of control

COc1ccc(N/C=C/C2=[N+](C)c3ccccc3C2(C)C)c(OC)c1
T/C (dose: 50.0 mg/kg/injection, schedule: Q01DX009 (ip), vehicle: saline): 103 % of control | T/C (dose: 100.0 mg/kg/injection, schedule: Q01DX009 (ip), vehicle: saline): 105 % of control | T/C [5]: 89 % of control | T/C (dose: 200.0 mg/kg/injection, schedule: Q01DX009 (ip), vehicle: saline): 97 % of control | T/C [6]: 89 % of control

From PubChem BioAssay AID256 (DTP/NCI, 2004)
